Experimental data: patent publication US20250361239A1, “PROTEIN DEGRADERS AND USES THEREOF” (ZHUHAI YUFAN BIOTECHNOLOGIES CO., LTD., priority 2022, published 2025)

Key:
Format in all cases: cell-based
HL60 cells = test: HL60 cell killing experiment (CellTiter-Glo cell viability); conditions: CTG luminescence
Description: (§1) HL60 cell lines were purchased from ATCC (Cat #ATCC® CCL-240™), IMDM media were purchased from ATCC (Cat #ATCC® 30-2005™), FBS was purchased from Gibco (Cat #10091148), celltiter-glo luminescent cell viability assay was purchased from promega (Cat #G7572), and 96-well plates were purchased from corning (Cat #3610).
(§2) The effect of compounds on the growth of HL60 cells was determined by measuring cell viability. Firstly, cells in the logarithmic growth phase were collected and centrifuged, and the culture supernatant was discarded. The centrifuged cells were resuspended in a fresh complete medium, and the cell density was adjusted to 5×10^4 cells/mL. The resuspended cells were inoculated into two opaque 96-well cell culture plates at 100 μL of cell suspension per well, and the cell culture plates were incubated in a cell incubator at 37° C. for 4 h. After 4 h, dilutions (20 μL) of compounds with different concentrations were added. After one of the cell plates was cooled to room temperature, 60 μL of CTG reagent was added, and the luminescence values were read on the instrument as G0. The other one was incubated in a cell incubator for 48 h. After 48 h, 60 μL of CTG reagent was added, and the luminescence values were read on the instrument as G3.
(§3) According to the corresponding proliferation rate and concentration of each gradient concentration well, a gradient curve of cell proliferation was fitted using XLFit software, and the GI50 values of compounds were calculated.

Jurkat cells = test: Jurkat cell killing experiment (CellTiter-Glo cell viability); conditions: Homo sapiens, 48 h incubation, CTG luminescence
Description: as §1, with “Jurkat” for “HL60”, “TIB-152™), RPMI1640” for “CCL-240™), IMDM”, “30-2001™),” for “30-2005™),”, “coming” for “corning”
as §2, with “Jurkat” for “HL60”, “viability and growth rate.” for “viability.”, “two identical” for “two”
as §3

Hep3B cells = test: Hep3B cell killing experiment (CellTiter-Glo cell viability); conditions: Homo sapiens, 48 h incubation, CTG luminescence
Description: as §1, with “Hep3B” for “HL60”, “HB-8064™), EMEM” for “CCL-240™), IMDM”, “30-2003™),” for “30-2005™),”, “coming” for “corning”
The effect of compounds on the growth of Hep3B cells was determined by measuring cell viability and growth rate. Firstly, the cells were digested with pancreatin, and the digestion was then terminated with medium. The cells were centrifuged, and the supernatant was discarded. The centrifuged cells were resuspended in a fresh complete medium, and the cell density was adjusted to 5×10^4 cells/mL. The resuspended cells were inoculated into two identical opaque 96-well cell culture plates at 100 μL of cell suspension per well, and the cell culture plates were incubated in a cell incubator at 37° C. overnight. The next day, dilutions (20 μL) of compounds with different concentrations were added. After one of the cell plates was cooled to room temperature, 60 μL of CTG reagent was added. The luminescence values were read on the instrument as G0. The other one was incubated in a cell incubator for 48 h. After 48 h, 60 μL of CTG reagent was added, and the luminescence values were read on the instrument as G3.
as §3

Toledo cells = test: Toledo cell killing experiment (CellTiter-Glo cell viability); conditions: Homo sapiens, 48 h incubation, CTG luminescence
Description: as §1, with “Toledo” for “HL60”, “CRL-2631™), RPMI1640” for “CCL-240™), IMDM”, “30-2001™),” for “30-2005™),”, “coming” for “corning”
as §2, with “Toledo” for “HL60”, “viability and growth rate.” for “viability.”, “two identical” for “two”
as §3

GSPT1 = target: T1, GSPT1 (Homo sapiens, UniProt P15170+Q96SW2); test: Degradation of GSPT1 by the compounds (HiBiT signal in GSPT1/HEK293 hibit cells); conditions: 6 h incubation, Nano Glo HiBiT Lytic Detection
T1 construct: host or cells: HEK293
Description: GSPT1/HEK293 hibit cell lines were constructed by Shanghai BioDuro Co., Ltd., HEK293 cell lines were purchased from ATCC (Cat #ATCC® CRL-1573™), DMEM media were purchased from ATCC (Cat #ATCC® 30-2002™), FBS was purchased from Gibco (Cat #10091148), Nano Glo HiBiT Lytic Detection System was purchased from Promega (Cat #N3040), and 96-well plates were purchased from coming (Cat #3610).
The degradation of GSPT1 by the compounds was determined by measuring the intensity of hibit signals in cells. Firstly, the cells were digested with pancreatin, and the digestion was then terminated with medium. The cells were centrifuged, and the supernatant was discarded. The centrifuged cells were resuspended in a fresh complete medium, and the cell density was adjusted to 2.5×10^4 cells/mL. The resuspended cells were inoculated into an opaque 96-well cell culture plate at 100 μL of cell suspension per well, and the cell culture plate was incubated in a cell incubator at 37° C. overnight. The next day, dilutions (20 μL) of compounds with different concentrations were added, and the plate was incubated in a cell incubator for 6 h. After 6 h, 60 μL of Nano Glo HiBiT Lytic Detection System reagent was added and the luminescence values were read on the instrument.
According to the corresponding degradation rate and concentration of each gradient concentration well, a gradient curve of degradation rate was fitted using XLFit software, and the DC50 values of compounds were calculated.

SU-DHL-2 cells = test: SU-DHL-2 cell killing experiment (CellTiter-Glo cell viability); conditions: Homo sapiens, 48 h incubation, CTG luminescence
Description: as §1, with “SU-DHL-2” for “HL60”, “CRL-2956™), RPMI1640” for “CCL-240™), IMDM”, “30-2001™),” for “30-2005™),”, “coming” for “corning”
as §2, with “SU-DHL-2” for “HL60”, “viability and growth rate.” for “viability.”, “two identical” for “two”
as §3

NCI-H929 cells = test: NCI-H929 cell killing experiment (CellTiter-Glo cell viability); conditions: Homo sapiens, 48 h incubation, CTG luminescence
Description: as §1, with “NCI-H929” for “HL60”, “CRL-9068™), RPMI1640” for “CCL-240™), IMDM”, “30-2001™),” for “30-2005™),”, “coming” for “corning”
as §2, with “2. Method The effect” for “The effect”, “growth of NCI-H929 cells was” for “growth of HL60 cells was”, “measuring cell viability and growth rate. Firstly, cells” for “measuring cell viability. Firstly, cells”, “into two identical opaque 96-well” for “into two opaque 96-well”
as §3

THP-1 cells = test: THP-1 cell killing experiment (CellTiter-Glo cell viability); conditions: Homo sapiens, 48 h incubation, CTG luminescence
Description: as §1, with “THP-1” for “HL60”, “TIB-202™), RPMI1640” for “CCL-240™), IMDM”, “30-2001™),” for “30-2005™),”, “coming” for “corning”
as §2, with “THP-1” for “HL60”, “viability and growth rate.” for “viability.”, “two identical” for “two”
as §3

[1] = Homo sapiens, HL-60, 48 h incubation

T1 sequence (P15170 whole entry): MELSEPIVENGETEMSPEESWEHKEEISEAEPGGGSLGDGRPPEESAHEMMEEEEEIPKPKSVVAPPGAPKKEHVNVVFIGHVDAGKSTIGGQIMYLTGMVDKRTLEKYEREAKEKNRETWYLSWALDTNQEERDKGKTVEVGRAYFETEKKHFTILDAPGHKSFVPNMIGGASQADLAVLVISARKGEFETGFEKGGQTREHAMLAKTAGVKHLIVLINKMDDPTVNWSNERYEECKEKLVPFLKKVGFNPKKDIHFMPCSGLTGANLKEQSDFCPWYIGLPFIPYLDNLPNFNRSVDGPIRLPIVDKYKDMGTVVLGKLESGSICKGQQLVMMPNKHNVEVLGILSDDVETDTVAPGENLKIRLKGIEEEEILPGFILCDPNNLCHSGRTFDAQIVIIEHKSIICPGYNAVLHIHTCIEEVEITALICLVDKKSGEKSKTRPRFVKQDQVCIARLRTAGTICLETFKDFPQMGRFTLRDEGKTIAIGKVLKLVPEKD
T1 sequence (Q96SW2 whole entry): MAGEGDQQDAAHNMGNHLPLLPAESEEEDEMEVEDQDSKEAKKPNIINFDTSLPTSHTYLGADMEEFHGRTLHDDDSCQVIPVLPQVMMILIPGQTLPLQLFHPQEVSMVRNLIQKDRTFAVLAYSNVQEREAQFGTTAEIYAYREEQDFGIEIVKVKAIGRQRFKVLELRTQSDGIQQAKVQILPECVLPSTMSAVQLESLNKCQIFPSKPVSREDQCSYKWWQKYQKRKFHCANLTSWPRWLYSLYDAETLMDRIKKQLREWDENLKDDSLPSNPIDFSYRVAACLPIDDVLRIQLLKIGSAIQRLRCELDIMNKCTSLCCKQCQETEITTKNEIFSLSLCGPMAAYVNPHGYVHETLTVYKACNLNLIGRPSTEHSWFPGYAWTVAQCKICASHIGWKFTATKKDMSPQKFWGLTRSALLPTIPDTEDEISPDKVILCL
T1 sequence (Q16531 whole entry partner): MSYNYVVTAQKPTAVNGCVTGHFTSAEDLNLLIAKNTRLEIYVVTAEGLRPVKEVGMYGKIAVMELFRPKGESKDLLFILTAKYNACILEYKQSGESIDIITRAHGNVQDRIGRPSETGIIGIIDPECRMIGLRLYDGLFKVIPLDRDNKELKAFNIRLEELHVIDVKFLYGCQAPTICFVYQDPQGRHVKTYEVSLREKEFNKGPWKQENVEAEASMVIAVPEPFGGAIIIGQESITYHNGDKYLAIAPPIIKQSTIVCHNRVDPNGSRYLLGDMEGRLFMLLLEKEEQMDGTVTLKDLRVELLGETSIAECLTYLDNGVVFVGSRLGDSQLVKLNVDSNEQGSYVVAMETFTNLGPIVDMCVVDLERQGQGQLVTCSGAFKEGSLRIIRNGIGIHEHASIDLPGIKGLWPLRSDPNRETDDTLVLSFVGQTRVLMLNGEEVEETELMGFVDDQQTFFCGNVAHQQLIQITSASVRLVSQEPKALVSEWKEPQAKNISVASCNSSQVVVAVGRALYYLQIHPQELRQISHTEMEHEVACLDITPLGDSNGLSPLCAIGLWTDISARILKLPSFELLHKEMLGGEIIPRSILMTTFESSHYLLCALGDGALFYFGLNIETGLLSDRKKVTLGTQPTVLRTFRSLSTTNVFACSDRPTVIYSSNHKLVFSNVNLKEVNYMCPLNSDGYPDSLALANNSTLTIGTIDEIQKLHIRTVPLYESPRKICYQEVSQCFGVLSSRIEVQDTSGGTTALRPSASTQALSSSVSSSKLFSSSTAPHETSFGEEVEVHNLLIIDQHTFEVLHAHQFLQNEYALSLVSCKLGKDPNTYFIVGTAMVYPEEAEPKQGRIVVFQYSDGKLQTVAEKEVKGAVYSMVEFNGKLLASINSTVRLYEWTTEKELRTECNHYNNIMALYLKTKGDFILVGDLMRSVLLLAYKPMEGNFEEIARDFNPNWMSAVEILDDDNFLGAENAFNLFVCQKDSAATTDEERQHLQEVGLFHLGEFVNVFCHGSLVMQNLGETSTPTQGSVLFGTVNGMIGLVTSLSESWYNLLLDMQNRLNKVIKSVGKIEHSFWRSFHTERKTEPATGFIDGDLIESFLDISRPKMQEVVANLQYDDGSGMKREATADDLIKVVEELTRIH

| SMILES | GI50 (HL60 cells; [1]) [nM] | GI50 (Jurkat cells) [nM] | GI50 (Hep3B cells) [nM] | GI50 (Toledo cells) [nM] | DC50 (GSPT1) [nM] | GI50 (HL60 cells; 48 h incubation) [nM] | GI50 (SU-DHL-2 cells) [nM] | GI50 (NCI-H929 cells) [nM] | GI50 (THP-1 cells) [nM] |
| --- | --- | --- | --- | --- | --- | --- | --- | --- | --- |
| Cn1c2cnccc2nc1[C@H]1CC[C@H](NC(=O)c2cc(CNc3cccc4c3C(=O)N(C3CCC(=O)NC3=O)C4=O)ccn2)CC1 (stereo partly drawn) [Example 26] | < 100 | 2.24 | 2.7 | 11.7 | < 100 |  |  |  |  |
| Cn1c(C2CCC(NC(=O)c3cc(CNc4cccc5c4C(=O)N(C4CCC(=O)NC4=O)C5=O)ccn3)CC2)nc2ccncc21 (stereo not drawn) [Example 39] |  | 1.73 | 0.99 | 3.58 | < 100 | < 100 |  |  |  |
| Cn1c(C2CCC(NC(=O)CCCCNc3cccc4c3C(=O)N(C3CCC(=O)NC3=O)C4=O)CC2)nc2c3c(C4CCOCC4)c[nH]c3ncc21 (stereo not drawn) [Example 113] | < 100 |  |  | 1.53 | < 100 |  |  |  |  |
| O=C1CCC(N2C(=O)c3cccc(NCc4cccc(NC(=O)[C@H]5CC[C@H](c6nc7cccnc7s6)CC5)c4F)c3C2=O)C(=O)N1 (stereo partly drawn) [Example 81] | < 100 | 11.4 |  | 4.03 | < 100 |  | 5.62 | 0.33 |  |
| O=C1CCC(N2C(=O)c3cccc(NCc4cccc(C(=O)N[C@H]5CC[C@H](c6nc7cccnc7s6)CC5)c4)c3C2=O)C(=O)N1 (stereo partly drawn) [Example 61] | < 100 |  | 1.48 | 5.31 | < 100 |  |  | 1.08 |  |
| CC(C)n1c(C2CCC(NC(=O)c3cccc(CNc4cccc5c4C(=O)N(C4CCC(=O)NC4=O)C5=O)c3)CC2)nc2cccnc21 (stereo not drawn) [Example 83] | < 100 |  | 7.88 |  | < 100 |  |  | 5.49 | 67.6 |
| Cn1c(C2CCC(NC(=O)C3CC(CNc4cccc5c4C(=O)N(C4CCC(=O)NC4=O)C5=O)C3)CC2)nc2ccncc21 (stereo not drawn) [Example 10] | < 100 |  | 6.91 |  | < 100 |  |  | 19.6 |  |
| Cn1c2cnccc2nc1[C@H]1CC[C@H](N2Cc3ccc(CNc4cccc5c4C(=O)N(C4CCC(=O)NC4=O)C5=O)cc3C2=O)CC1 (stereo partly drawn) [Example 70] | < 100 |  | 5.21 |  | < 100 |  | 22.3 | 1.63 |  |
| COc1ccc2c(c1)nc([C@H]1CC[C@H](N(C)C(=O)c3cc(CNc4cccc5c4C(=O)N(C4CCC(=O)NC4=O)C5=O)ccn3)CC1)n2C (stereo partly drawn) [Example 105] |  | 1.3 |  |  |  |  |  |  |  |
| COc1ccc(CNc2cccc3c2C(=O)N(C2CCC(=O)NC2=O)C3=O)cc1C(=O)N[C@H]1CC[C@H](c2nc3cccnc3s2)CC1 (stereo partly drawn) [Example 94] | < 100 | 2.51 |  |  | < 100 |  |  |  |  |
